Patent US20100150842A1, “Method and Kit for Detecting Resistance in Living Organisms” (priority 2007, published 2010)
Where two headings read alike, the source gives them in different places.

Assays:
[1] = cited from earlier work
[2] = test system: SU-resistant Stellaria media biotypes; assay: Resistance factors of SU-resistant Stellaria media biotypes to herbicides (ratio of ED50 values); assay type: in vivo
From the text: The sensitivity to a specific herbicide of each biotype can be tested by determining the amount of herbicide needed to reduce the biomass to 50% of the non-treated plants of the same biotype. When comparing sensitivity among biotypes the “resistance factor” can be used to characterise the sensitivity.
The “resistance factor” is used to characterize the extent of susceptibility and resistance of a species to a herbicide. Resistance factors are typically represented as a ration of ED50 values for different biotypes.
The resistance factor is the ratio of the ED50 value of the resistant and susceptible biotypes.
Results from a study with 6 SU-resistant (Sulfonylurea-resistant) Stellaria media biotypes are included.

[3] = test system: fish and aquatic invertebrates; conditions: water bodies; cited from earlier work
[4] = test system: Stellaria media sensitive and target resistant biotypes; assay: TLC analysis of Stellaria media extracts, unexposed and exposed to Hussar OD; assay type: in vivo
From the text: S0=ID 1 Biotype 1 sensitive control S1=ID 1 Biotype 1 sensitive exposed to 1N Hussar OD+0.5 I/ha Renol R10=ID 9 Biotype 2 Target resistant control R11=ID 9 Biotype 2 Target resistant exposed to 1N Hussar OD+0.5 I/ha Renol R110=ID 9 Biotype 2 Target resistant exposed to 10N Hussar OD+0.5 I/ha Renol R20=ID 102 Biotype 3 Target resistant exposed control R21=ID 102 Biotype 3 Target resistant exposed to 1N Hussar OD+0.5 I/ha Renol R210=ID 102 Biotype 3 Target resistant exposed to 10N Hussar OD+0.5 I/ha Renol
Et=100 mg freeze-dried plant material in 4.00 ml 80% Ethanol extracted for 20 min. in ultrasonic bath (Réalisation Etudes Ultra Son (REUS), 16, allée des Cystes, 06390 Contes, France).
Aq=50 mg freeze-dried plant material in 4.00 ml 80% Ethanol extracted for 20 min. in ultrasonic bath (Réalisation Etudes Ultra Son (REUS), 16, allée des Cystes, 06390 Contes, France)+200 it EtOH after filtration.
The extracts (10 μl) were applicated on Silicagel 60 Merck 1.05721 (10×20 cm) or (5 μl) Cellulose aluminium Merck 1.05552.0001 with together with the reference T=1 0/00× in ethanol using a TLC Automatic TLC Sampler III.

[5] = test system: Papaver rhoeas sensitive and target resistant biotypes; assay: TLC analysis of Papaver rhoeas extracts, unexposed and exposed to Hussar OD; assay type: in vivo
From the text: S0=ID 150 Biotype 4 sensitive control S1=ID 150 Biotype 4 sensitive exposed to 1N Hussar OD+0.5 I/ha Renol R0=ID 397 Biotype 5 Target resistant control R1=ID 397 Biotype 5 Target resistant exposed to 1N Hussar OD+0.5 I/ha Renol R10=ID 397 Biotype 5 Target resistant exposed to 10N Hussar OD+0.5 I/ha Renol R20=ID 248 Biotype 6 Target resistant exposed control R21=ID 248 Biotype 6 Target resistant exposed to 1N Hussar OD+0.5 I/ha Renol R210=ID 248 Biotype 6 Target resistant exposed to 10N Hussar OD+0.5 I/ha Renol R30=ID 406 Biotype 12 Target resistant exposed control R31=ID 406 Biotype 12 Target resistant exposed to 1N Hussar OD+0.5 I/ha Renol R310=ID 406 Biotype 12 Target resistant exposed to 10N Hussar OD+0.5 I/ha Renol
100 mg freeze-dried plant material (Papaver rhoeas (Papaveraceae) in 4.00 ml 80% Ethanol extracted for 20 min. in ultrasonic bath (Realisation Etudes Ultra Son (REUS), 16, allée des Cystes, 06390 Contes, France). The extract was filtered through GELMAN GHP Agrodisc 13 0.45 μm.
The extracts (20 μl) were applicated on Silicagel 60 Merck 1.05721 (10×20 cm) or (10 μl) Cellulose aluminium Merck 1.05552.0001 together with the reference 1 0/00 papaverin in ethanol using a TLC Automatic TLC Sampler III.
TLC 5) Plate: Cellulose; Solvent: 2% Acetic acid in Water. The results can be seen in FIG. 7.
Detection: UV 366 nm after derivatisation with NEU+PEG is seen in FIG. 7b.

[6] = test system: Stellaria media SU-susceptible and SU-resistant biotype; assay: Biomarker pattern (HPPC) in extracts of Stellaria media exposed to iodosulfuron; assay type: in vivo; conditions: for number of type B biomarkers detected in extracts of susceptible plants: 50% of recommended field dose
Description: A SU-susceptible and SU-resistant biotype of Stellaria media was cultivated outdoors in 2-litre pots. At the 4-5 leaf stage the plants were exposed to iodosulfuron (IOD) applied in mixture with a methylated vegetable oil (Renol). Iodosulfuron was applied at 50% of the recommended field dose. The plants were harvested 4, 7 and 14 days after exposure. Immediately after harvest the plants were frozen and freeze-dried.
Freeze-dried plant material (50 mg per ml of 75% ethanol) was extracted in ultrasonic bath with ice for two hours. The extracts were centrifuged before analysis.
A biomarker pattern was detected as phytochemical changes in plant extracts. A comparison of the extracts of an un-treated susceptible (Biotype 1) and an untreated resistant (Biotype 2) of Stellaria media is shown as biomarkers type A. See further description in Example 3.
A comparison of extracts of the same biotypes exposed to iodosulfuron is shown as biomarkers type B. See further description in Example 3.
High Performance Planar Chromatography (HPPC)-systems were used to detect the two types of biomarkers.

N#Cc1cc(Br)c(O)c(Br)c1 [Bromoxynil]
half-life ([1]; most soil types): two

COc1ncc(F)c2nc(S(=O)(=O)Nc3c(F)cccc3F)nn12 [florasulam]
cross-resistance of SU-resistant biotypes [2]: could not be confirmed

CCC(CC)Nc1c([N+](=O)[O-])cc(C)c(C)c1[N+](=O)[O-] [Pendimethalin]
toxicity to fish [3]: toxic

O=C(O)CNCP(=O)(O)O [Glyphosate]
half-life ([1]; degraded by rapid microbial action): 3-5 weeks

COc1nc(C)nc(NC(=O)NS(=O)(=O)c2cc(I)ccc2C(=O)O)n1 [iodosulfuron]
new flavonoid in plant extract (TLC) ([4]; Stellaria media sensitive plant exposed): present
new flavonoid in plant extract (TLC) ([4]; Stellaria media target resistant biotypes, only at very high exposure concentrations (10N)): not present
new flavonoid in plant extract (TLC) ([5]; Papaver rhoeas biotypes of the target resistant plants): not present
new flavonoid in plant extract (TLC) ([5]; Papaver rhoeas sensitive plant exposed): present
number of type B biomarkers detected in extracts of susceptible plants ([6]; 7 and 14 days after exposure): 7
number of type B biomarkers detected in extracts of susceptible plants ([6]; 4 days after exposure): Five
unique biomarker pattern in extracts ([6]; SU-resistant Stellaria media biotype): absent
unique biomarker pattern in extracts ([6]; susceptible Stellaria media biotype, 4, 7 and 14 days after exposure): detected
